Source: the supplement of paper PMC4862054

Experiments:
Conditions in all cases: incubation time: 72 h
[1] = test system: BT-474; experiment: normalised response (% of control), CellTox Green; higher = less cell death (100 = DMSO, 0 = benzethonium chloride kill control)
Method in brief: (§1)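 Compound was dispensed into 384-well plates at 5 concentrations in 10-fold steps spanning a 10,000-fold range specific to that compound. Breast cancer cell lines were added as 20 µl suspension and left for 72 h before CellTox Green fluorescence (485/520 nm) and then CellTiter-Glo luminescence, read after 10 min at room temperature. Each reported value is the normalised signal at one concentration, with 0.1 % DMSO set at 100 and a positive kill control at 0 on each plate.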

[2] = test system: BT-549; experiment: as above
Method in brief: as §1

[3] = test system: CAL-120; experiment: as above
Method in brief: as §1

[4] = test system: CAL-148; experiment: as above
Method in brief: as §1

[5] = test system: CAL-51; experiment: as above
Method in brief: as §1

[6] = test system: CAL-85-1; experiment: as above
Method in brief: as §1

[7] = test system: DU-4475; experiment: as above
Method in brief: as §1

[8] = test system: HCC1143; experiment: as above
Method in brief: as §1

[9] = test system: HCC1599; experiment: as above
Method in brief: as §1

[10] = test system: HCC1937; experiment: as above
Method in brief: as §1

[11] = test system: HDQ-P1; experiment: as above
Method in brief: as §1

[12] = test system: Hs578T; experiment: as above
Method in brief: as §1

[13] = test system: MCF-10A; experiment: as above
Method in brief: as §1

[14] = test system: MDA-MB-231; experiment: as above
Method in brief: as §1

[15] = test system: MDA-MB-436; experiment: as above
Method in brief: as §1

[16] = test system: MDA-MB-453; experiment: as above
Method in brief: as §1

[17] = test system: MDA-MB-468; experiment: as above
Method in brief: as §1

[18] = test system: MFM-223; experiment: as above
Method in brief: as §1

[19] = test system: BT-474; experiment: normalised response (% of control), CellTiter-Glo; higher = more viable cells (100 = DMSO, 0 = benzethonium chloride kill control)
Procedure: (§2)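 DSRT, 72 h incubation, CellTox Green / CellTiter-Glo readout. Signal is normalised to DMSO and benzethonium chloride controls. Value is the normalised response at the highest dose.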

[20] = test system: BT-549; experiment: as above
Procedure: as §2

[21] = test system: CAL-120; experiment: as above
Procedure: as §2

[22] = test system: CAL-148; experiment: as above
Procedure: as §2

[23] = test system: CAL-51; experiment: as above
Procedure: as §2

[24] = test system: CAL-85-1; experiment: as above
Procedure: as §2

[25] = test system: DU-4475; experiment: as above
Procedure: as §2

[26] = test system: HCC1143; experiment: as above
Procedure: as §2

[27] = test system: HCC1599; experiment: as above
Procedure: as §2

[28] = test system: HCC1937; experiment: as above
Procedure: as §2

[29] = test system: HDQ-P1; experiment: as above
Procedure: as §2

[30] = test system: Hs578T; experiment: as above
Procedure: as §2

[31] = test system: MCF-10A; experiment: as above
Procedure: as §2

[32] = test system: MDA-MB-231; experiment: as above
Procedure: as §2

[33] = test system: MDA-MB-436; experiment: as above
Procedure: as §2

[34] = test system: MDA-MB-453; experiment: as above
Procedure: as §2

[35] = test system: MDA-MB-468; experiment: as above
Procedure: as §2

[36] = test system: MFM-223; experiment: as above
Procedure: as §2

[37] = test system: SK-BR-3; experiment: as above
Procedure: as §2

## Nc1cc(C(F)(F)F)c(-c2cc(N3CCOCC3)nc(N3CCOCC3)n2)cn1 [Buparlisib] (10000 nM)
[1]
  normalised response: 24%
[2]
  normalised response: 33.8%
[3]
  normalised response: 92.1%
[4]
  normalised response: 70%
[5]
  normalised response: -15.4%
[6]
  normalised response: 104%
[7]
  normalised response: 95.8%
[8]
  normalised response: 68.6%
[9]
  normalised response: 93.4%
[10]
  normalised response: 50.4%
[11]
  normalised response: 85.7%
[12]
  normalised response: 18%
[13]
  normalised response: 79.4%
[14]
  normalised response: 29.4%
[15]
  normalised response: 75.9%
[16]
  normalised response: 97.9%
[17]
  normalised response: 111%
[18]
  normalised response: 81.7%
[19]
  normalised response: 15.8%
[20]
  normalised response: 3.53%
[21]
  normalised response: 56.3%
[22]
  normalised response: 79.9%
[23]
  normalised response: 1.1%
[24]
  normalised response: 83.3%
[25]
  normalised response: 80.2%
[26]
  normalised response: 57.4%
[27]
  normalised response: 94.3%
[28]
  normalised response: 36.2%
[29]
  normalised response: 46.9%
[30]
  normalised response: 75%
[31]
  normalised response: 36%
[32]
  normalised response: 48%
[33]
  normalised response: 65.4%
[34]
  normalised response: 75.6%
[35]
  normalised response: 11.3%
[36]
  normalised response: 47.8%
[37]
  normalised response: 81.5%
